Consider one compound from paper PMC10350922, “Allosteric Inhibitors of Macrophage Migration Inhibitory Factor (MIF) Interfere with Apoptosis-Inducing Factor (AIF) Co-Localization to Prevent Parthanatos” (Journal of Medicinal Chemistry, 2023).

A word on the Kd: it is the constant that tells how readily two partners part at equilibrium. By remaining activity is commonly meant the signal under treatment as a percentage of the control signal. By IC50 is commonly meant the point on the concentration scale where inhibition reaches its midpoint.

The structures appear in SMILES notation. Entries after “also recorded” stand apart in the source; their conditions may differ.

One assay has as its target T1, MIF/ssDNA binding (Homo sapiens, UniProt P14174).
T1 construct: made in house; host or cells: Escherichia coli BL21
T1 sequence (P14174 2-115 limits assumed): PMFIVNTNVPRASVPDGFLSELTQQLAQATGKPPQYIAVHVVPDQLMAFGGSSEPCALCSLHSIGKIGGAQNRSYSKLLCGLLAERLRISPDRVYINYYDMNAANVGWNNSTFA
Briefly: MIF/ssDNA binding assay (ZP307-labeled MIF, PA20-Q1 quenching). The settings on record: labeled MIF 1 μM, PA20-Q1 1 μM; 6y up to 100 μM. From the text: Although in our hands the nuclease activity could not unambiguously be assigned to MIF (due to the possibility of bacterial contamination), there is still a possibility that MIF binds to single-stranded DNA (ssDNA). Furthermore, the direct interaction between MIF and ssDNA was investigated. We developed a MIF/ssDNA binding assay to detect and quantify the binding of MIF to ssDNA (Figure 6f). To establish this assay, we employed a MIF probe ZP307 (Figure 1c) that binds covalently to the N-terminal proline of MIF. This probe enables the fluorescent labeling of MIF.[38] The oligonucleotide Poly A was earlier described as a MIF nuclease substrate, lacking a secondary structure.[11] […] This enabled using the BHQ1-labeled poly A oligonucleotide (PA20-Q1) as an energy acceptor to quench fluorescence emission by labeling MIF once a MIF/ssDNA complex formed (Figure 6f). […]
Five equivalents of probe ZP307 were mixed with recombinant MIF protein for MIF labeling and incubated overnight at 4 °C. […] The fluorescence (Ex488/Em520) was determined immediately using a BioTek Synergy H1 Hybrid plate reader. The wells in the absence of PA20-Q1 were considered a positive control (100% of fluorescence signal), whereas the wells without inhibitors were considered a negative control (0% of fluorescence signal).

The next assay has as its system HeLa cells. Kind of assay: Cell death determination by flow cytometry (Hoechst 33342 / PI). The class given is cell-based. The settings on record: MNNG 50 μM 15 min, with or without 100 μM inhibitor pretreatment, 24 h. On the technique in general: A flow cytometer gives signals particle by particle.
Assay [1] has as its target T2, MIF (Homo sapiens, UniProt P14174).
T2 construct: made in house; host or cells: Escherichia coli BL21, pET-20b(p) plasmid
T2 sequence (P14174 2-115 limits assumed): T1 sequence (P14174 2-115 limits assumed)
Kind of assay: Microscale thermophoresis (MST) binding assay. The settings on record: 25 °C, RED-tris-NTA labeled MIF. The method, then: A microscale thermophoresis (MST) assay was performed to confirm the binding of 6y to MIF. […] Overall, we concluded that 6y binds reversibly to an allosteric binding site that affects MIF tautomerase activity.
MST experiments were performed on a Monolith NT.115 system (NanoTemper Technologies) using 100% LED and 60% IR-laser power. Laser on and off times were set at 30 and 5 s, respectively. A 100 nM dye solution RED-tris-NTA was prepared by mixing 2 μL of the dye (5 μM in DMSO) and 98 μL of PBS-T. The protein concentration was adjusted to 200 nM, and 100 μL of this solution was added to the tube with dye and incubated at rt for 30 min. Meanwhile, a twofold dilution series of compound 6y was prepared in PBS-T containing 5% DMSO. Subsequently, 10 μL of labeled MIF was mixed with 10 μL of the samples with 16 different concentrations of 6y ranging from 2000 to 0.06 μM. The samples were centrifuged for 10 min at rt and the supernatant was transferred into fresh tubes. After that, the standard treated capillaries (K002) were filled with the solutions and the MST curves were measured at 25 °C.

The target in assay [2] is T2, MIF. Kind of assay: MIF tautomerase activity assay (PP substrate, UV absorbance at 300 nm). The format is biochemical. The method, then:
Recombinant human MIF with a C-terminal His-tag was expressed and purified following methods published previously.[47] The inhibitory potency for MIF tautomerase activity of the 1-phenyl-1H-1,2,3-triazole-4-carboxamides was measured after pre-incubation with MIF. The MIF-catalyzed PP tautomerization was measured by the corresponding change in UV absorbance over the first 3 min of the reaction.[48] Initial screening of the inhibitory potency was performed at 10 μM inhibitor concentration.
Inhibition of the tautomerase activity and kinetics of MIF was measured using […] (PP) as a substrate. A stock solution was prepared by mixing PP in 50 mM ammonium acetate buffer and adjusted to pH 6.0 using 1.0 M NaOH to provide a concentration of 20 mM. This solution was incubated overnight at 37 °C to allow equilibration of the keto and enol forms and then stored at 4 °C. For the assay, MIF stock solution (10 μL, 70 μM) was diluted in 20 mL of the boric acid buffer (435 mM H3BO3, 1 mM EDTA, pH 6.2) to provide 35 nM solution. The enzyme activity was determined by premixing 192 μL of the MIF dilution with 8 μL of the inhibitors dissolved in DMSO (1 mM). This mixture was preincubated for 10 min. Next, 50 μL of the mixture was mixed with 50 μL of 2 mM PP solution in ammonium acetate buffer. Subsequently, MIF tautomerase activity was monitored by the formation of the borate–enol complex, which was measured by the increase in UV absorbance at 300 nm. The increase in UV absorbance was measured over the first 10 min of incubation using a BioTek Synergy H1 Hybrid plate reader. MIF tautomerase activity in the presence of blank DMSO was set to 100% enzyme activity. […] Data from the first 3 min were used to calculate the initial velocities. All of the graphs were prepared in GraphPad Prism.
For the IC50 measurements, 1 mM solutions of the compounds were double-diluted 10 times in DMSO and subsequently, the MIF tautomerase activity was determined by premixing 190 μL of the MIF dilution with 10 μL of the inhibitors. This mixture was preincubated for 10 min and mixed with the 2 mM PP solution as described above.

Consider `O=C(Nc1ccccc1)c1ccc(-n2cc(C(=O)NCc3cccs3)nn2)cc1` [Compound 6y, 1-(4-(Phenylcarbamoyl)phenyl)-N-(thiophen-2-ylmethyl)-1H-1,2,3-triazole-4-carboxamide], for which, on MIF/ssDNA binding, the MIF/PA20-Q1 binding result is “unable to block MIF/PA20-Q1 binding; also recorded: could not replace the oligonucleotide”. For the same compound, the “Cells stained by PI” value with HeLa cells was found to be 20%. The equilibrium dissociation constant (Kd) at MIF [1] was determined as 95 µM. The remaining activity at 10 µM on MIF [2] (10 μM inhibitor, activity without inhibitor set to 100%, mean, n = 3) was 12%. The IC50 on MIF [2] (PP as substrate, 10 min preincubation, read-out: IC50, inhibition of MIF tautomerase activity) was 1.7 ± 0.1 µM.
